Source: ChEMBL document CHEMBL1201862, “PubChem BioAssay data set” (2004)
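Each compound was tested at five concentrations against cells in 96-well plates for 48 hours. At the GI50, growth is halved.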 The source made the active and inactive calls. Rule as the data show it: active = GI50 up to about 1.1 µM and inactive = higher.

Key:
Experiment in all cases: NCI-60 cell line screen, 48 h
CCRF-CEM = tested on: CCRF-CEM
COLO 205 = tested on: COLO 205
HOP-62 = tested on: HOP-62
HOP-92 = tested on: HOP-92
K562 = tested on: K562
LOX IMVI = tested on: LOX IMVI
OVCAR-4 = tested on: OVCAR-4
RPMI-8226 = tested on: RPMI-8226
SF-268 = tested on: SF-268
SK-MEL-28 = tested on: SK-MEL-28
SK-MEL-2 = tested on: SK-MEL-2
SNB-19 = tested on: SNB-19
SR = tested on: SR
TK-10 = tested on: TK-10
UACC-257 = tested on: UACC-257
DU-145 = tested on: DU-145
MDA-MB-435 = tested on: MDA-MB-435
NCI/ADR-RES = tested on: NCI/ADR-RES
PC-3 = tested on: PC-3
Hs-578T = tested on: Hs-578T

Measured: GI50

COc1cccc(C2CC23C(=O)NC(=O)NC3=O)c1 (configuration not stated)
inactive: CCRF-CEM > 100 µM | COLO 205 > 100 µM | HOP-62 > 100 µM | HOP-92 > 100 µM | K562 > 100 µM | LOX IMVI > 100 µM | OVCAR-4 > 100 µM | RPMI-8226 > 100 µM | SF-268 > 100 µM | SK-MEL-28 > 100 µM | SK-MEL-2 > 100 µM | SNB-19 > 100 µM | SR > 100 µM | TK-10 > 100 µM | UACC-257 > 100 µM

CCOC(=O)/C=C/c1cccc(F)c1
inactive: CCRF-CEM > 100 µM | COLO 205 > 100 µM | DU-145 > 100 µM | HOP-62 > 100 µM | HOP-92 > 100 µM | K562 > 100 µM | LOX IMVI > 100 µM | MDA-MB-435 > 100 µM | NCI/ADR-RES > 100 µM | OVCAR-4 > 100 µM | PC-3 > 100 µM | RPMI-8226 > 100 µM | SF-268 > 100 µM | SK-MEL-28 > 100 µM | SK-MEL-2 > 100 µM | SNB-19 > 100 µM | SR > 100 µM | TK-10 > 100 µM | UACC-257 > 100 µM

Cc1nc(Nc2ccc(Cl)cc2)sc1C(=O)Nc1cccc2c(=O)[nH][nH]c(=O)c12
inactive: CCRF-CEM 16.9 µM | COLO 205 16 µM | HOP-62 35.6 µM | HOP-92 13.3 µM | K562 1.26 µM | LOX IMVI 13.6 µM | OVCAR-4 49.4 µM | SF-268 31.8 µM | SK-MEL-28 52.4 µM | SK-MEL-2 30.4 µM | SNB-19 43.3 µM | SR 21 µM | TK-10 > 100 µM | UACC-257 96.8 µM

CCNC(=O)NNc1ncnc2c1c(-c1ccc(Cl)cc1)cn2-c1ccc(C)cc1
inactive: CCRF-CEM 20.2 µM | COLO 205 15.9 µM | DU-145 21.5 µM | HOP-62 20.4 µM | HOP-92 18.2 µM | K562 18.6 µM | LOX IMVI 17.7 µM | MDA-MB-435 17 µM | NCI/ADR-RES 20 µM | OVCAR-4 11.5 µM | PC-3 17.7 µM | SF-268 19 µM | SK-MEL-28 18.9 µM | SK-MEL-2 20.4 µM | SNB-19 18.2 µM | SR 20.2 µM | TK-10 34.2 µM | UACC-257 21.3 µM

COc1ccc(NC(=O)/C(=N/O)C(C)=O)cc1
inactive: CCRF-CEM 75.3 µM | HOP-62 > 100 µM | HOP-92 > 100 µM | K562 47.5 µM | LOX IMVI 30.8 µM | RPMI-8226 > 100 µM | SF-268 > 100 µM | SK-MEL-28 > 100 µM | SK-MEL-2 > 100 µM | SNB-19 > 100 µM | SR > 100 µM | TK-10 > 100 µM | UACC-257 > 100 µM

O=C(O)CCCCCO
inactive: CCRF-CEM > 100 µM | COLO 205 > 100 µM | HOP-62 > 100 µM | HOP-92 > 100 µM | K562 > 100 µM | LOX IMVI > 100 µM | OVCAR-4 > 100 µM | RPMI-8226 > 100 µM | SF-268 > 100 µM | SK-MEL-28 > 100 µM | SK-MEL-2 > 100 µM | SNB-19 > 100 µM | SR > 100 µM | TK-10 > 100 µM | UACC-257 > 100 µM

CCOC(=O)/C(=C/c1cccc(Cl)c1)N(CC)CC
inactive: CCRF-CEM 43.1 µM | COLO 205 > 100 µM | HOP-62 29.9 µM | HOP-92 25.5 µM | K562 52.2 µM | LOX IMVI 81.8 µM | OVCAR-4 47.1 µM | RPMI-8226 36.7 µM | SF-268 52.7 µM | SK-MEL-28 90.8 µM | SK-MEL-2 29.6 µM | SR > 100 µM | TK-10 > 100 µM | UACC-257 55.8 µM

CCNC12CCC(C1)C(C)(C)C2=O (configuration not stated)
inactive: CCRF-CEM > 100 µM | COLO 205 > 100 µM | DU-145 > 100 µM | HOP-62 > 100 µM | HOP-92 > 100 µM | K562 > 100 µM | LOX IMVI > 100 µM | MDA-MB-435 > 100 µM | NCI/ADR-RES > 100 µM | OVCAR-4 > 100 µM | PC-3 > 100 µM | RPMI-8226 > 100 µM | SK-MEL-28 > 100 µM | SK-MEL-2 > 100 µM | SNB-19 > 100 µM | SR > 100 µM | TK-10 > 100 µM | UACC-257 > 100 µM

CCOC(=O)C1=C(OC(OCC)C([Se]c2ccccc2)C(C)C)CCC1 (configuration not stated)
inactive: CCRF-CEM 3.44 µM | COLO 205 14.7 µM | HOP-62 68.7 µM | HOP-92 27.5 µM | K562 37 µM | LOX IMVI 2.31 µM | OVCAR-4 16.1 µM | RPMI-8226 10.1 µM | SF-268 4.73 µM | SK-MEL-28 16.4 µM | SK-MEL-2 15.1 µM | SNB-19 27.2 µM | SR 3.2 µM | TK-10 47 µM | UACC-257 23.2 µM

Cc1ccc(S(=O)(=O)N2CCCN(S(=O)(=O)c3ccc(C)cc3)CCN(S(=O)(=O)c3ccc(C)cc3)CCCSCC2)cc1
inactive: CCRF-CEM > 100 µM | COLO 205 > 100 µM | DU-145 > 100 µM | HOP-62 54.5 µM | HOP-92 > 100 µM | Hs-578T > 100 µM | K562 > 100 µM | MDA-MB-435 > 100 µM | NCI/ADR-RES > 100 µM | OVCAR-4 > 100 µM | RPMI-8226 > 100 µM | SF-268 > 100 µM | SK-MEL-28 > 100 µM | SK-MEL-2 > 100 µM | SNB-19 > 100 µM

N#C/C(C(=O)Nc1ccccc1)=C(/N)N1CCCCC1
inactive: CCRF-CEM > 100 µM | COLO 205 > 100 µM | DU-145 > 100 µM | HOP-62 > 100 µM | HOP-92 > 100 µM | K562 > 100 µM | LOX IMVI > 100 µM | MDA-MB-435 84.9 µM | NCI/ADR-RES > 100 µM | PC-3 > 100 µM | RPMI-8226 > 100 µM | SK-MEL-28 > 100 µM | SK-MEL-2 > 100 µM | SNB-19 > 100 µM | SR > 100 µM | UACC-257 > 100 µM

O=C(NNC(=O)c1c(Cl)c(Cl)c(Cl)c(Cl)c1-c1nc2ccccc2[nH]1)c1ccc(Cl)cc1
inactive: CCRF-CEM 22.4 µM | COLO 205 32.1 µM | DU-145 42.5 µM | HOP-62 61.9 µM | HOP-92 24.6 µM | K562 35.8 µM | LOX IMVI 65.9 µM | MDA-MB-435 24 µM | NCI/ADR-RES 32.9 µM | OVCAR-4 50.2 µM | PC-3 55 µM | RPMI-8226 33 µM | SF-268 > 100 µM | SK-MEL-28 81.1 µM | SK-MEL-2 37.9 µM | SNB-19 68.5 µM | SR 33.8 µM

O=c1c2ccccc2n2c(-c3ccc(O)cc3)nnc2n1-c1ccccc1
inactive: CCRF-CEM 14.8 µM | COLO 205 77.6 µM | DU-145 21.9 µM | HOP-62 20.4 µM | HOP-92 23.3 µM | K562 13.4 µM | LOX IMVI 29.4 µM | MDA-MB-435 18.5 µM | NCI/ADR-RES 21.5 µM | OVCAR-4 20 µM | PC-3 17.9 µM | SF-268 21.8 µM | SK-MEL-28 24.3 µM | SK-MEL-2 20.7 µM | SNB-19 20.4 µM | SR 21.3 µM | TK-10 26.5 µM | UACC-257 21.5 µM

NNC(=S)N/N=C(/C(=O)Nc1ccc([N+](=O)[O-])cc1)c1nc2ccc([N+](=O)[O-])cc2nc1O
inactive: CCRF-CEM > 100 µM | COLO 205 > 100 µM | HOP-92 > 100 µM | K562 > 100 µM | LOX IMVI > 100 µM | OVCAR-4 > 100 µM | RPMI-8226 > 100 µM | SF-268 > 100 µM | SK-MEL-28 > 100 µM | SK-MEL-2 > 100 µM | SR > 100 µM | TK-10 > 100 µM | UACC-257 > 100 µM

COC(=O)C(=Cc1cc(OC)c(OC)c(OC)c1-c1cc2c(cc1C1(C)OCCS1)OCO2)C(=O)OC (configuration not stated)
inactive: CCRF-CEM 33 µM | COLO 205 40 µM | HOP-62 29.2 µM | HOP-92 3.5 µM | K562 33.6 µM | LOX IMVI 22.6 µM | RPMI-8226 28 µM | SF-268 29.5 µM | SK-MEL-28 33.4 µM | SK-MEL-2 21.1 µM | SNB-19 98.9 µM | SR 22.2 µM | TK-10 86.9 µM | UACC-257 31.4 µM

C=C(CCCCC)CN1CCCC1C(C)=O (configuration not stated)
inactive: CCRF-CEM 12.9 µM | COLO 205 17.1 µM | HOP-62 22.3 µM | HOP-92 20.3 µM | K562 15 µM | LOX IMVI 18.8 µM | OVCAR-4 4.45 µM | RPMI-8226 13.1 µM | SF-268 42.3 µM | SK-MEL-28 57.3 µM | SK-MEL-2 26.1 µM | SNB-19 > 62.1 µM | SR 14.9 µM | TK-10 38.1 µM | UACC-257 26.6 µM

COc1ccc(O)cc1 [MEQUINOL]
inactive: CCRF-CEM 60.3 µM | COLO 205 > 100 µM | HOP-62 40.8 µM | HOP-92 44.1 µM | K562 68.1 µM | LOX IMVI 49 µM | OVCAR-4 > 100 µM | RPMI-8226 > 100 µM | SF-268 55 µM | SK-MEL-28 > 100 µM | SK-MEL-2 > 100 µM | SNB-19 > 100 µM | SR 89.7 µM | TK-10 > 100 µM | UACC-257 > 100 µM

CCOP(=O)(OCC)C1=NC=CC=CC1n1c(-c2ccccc2)nn(CC)c1=O (configuration not stated)
inactive: CCRF-CEM > 100 µM | COLO 205 > 100 µM | HOP-62 > 100 µM | HOP-92 7.06 µM | LOX IMVI > 100 µM | RPMI-8226 > 100 µM | SF-268 > 100 µM | SK-MEL-28 > 100 µM | SK-MEL-2 > 100 µM | SNB-19 > 100 µM | SR > 100 µM | TK-10 > 100 µM | UACC-257 > 100 µM
